From patent US20200207989A1, “FLUORESCENT PROBE FOR ALDH3A1 DETECTION” (The University of Tokyo, priority 2016, published 2020)

T1: ALDH1A1 (Homo sapiens, UniProt P00352)
T1 construct: purchased
T1 sequence (P00352 1-501): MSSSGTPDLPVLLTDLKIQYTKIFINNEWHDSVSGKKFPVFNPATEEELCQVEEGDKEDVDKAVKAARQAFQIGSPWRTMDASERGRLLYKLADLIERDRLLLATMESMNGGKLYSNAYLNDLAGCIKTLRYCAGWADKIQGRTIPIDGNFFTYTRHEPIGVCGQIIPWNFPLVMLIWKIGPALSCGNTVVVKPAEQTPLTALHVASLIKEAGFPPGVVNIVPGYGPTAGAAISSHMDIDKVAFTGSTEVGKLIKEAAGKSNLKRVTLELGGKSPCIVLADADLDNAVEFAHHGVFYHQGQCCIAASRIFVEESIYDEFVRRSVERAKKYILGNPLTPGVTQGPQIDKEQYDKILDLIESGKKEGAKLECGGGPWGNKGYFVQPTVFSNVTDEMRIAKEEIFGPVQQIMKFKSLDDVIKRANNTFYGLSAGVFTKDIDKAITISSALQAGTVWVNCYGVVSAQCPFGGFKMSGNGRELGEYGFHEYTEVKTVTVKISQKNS

T2: ALDH3A1 (Homo sapiens, UniProt P30838)
T2 construct: purchased
T2 sequence (P30838 1-453): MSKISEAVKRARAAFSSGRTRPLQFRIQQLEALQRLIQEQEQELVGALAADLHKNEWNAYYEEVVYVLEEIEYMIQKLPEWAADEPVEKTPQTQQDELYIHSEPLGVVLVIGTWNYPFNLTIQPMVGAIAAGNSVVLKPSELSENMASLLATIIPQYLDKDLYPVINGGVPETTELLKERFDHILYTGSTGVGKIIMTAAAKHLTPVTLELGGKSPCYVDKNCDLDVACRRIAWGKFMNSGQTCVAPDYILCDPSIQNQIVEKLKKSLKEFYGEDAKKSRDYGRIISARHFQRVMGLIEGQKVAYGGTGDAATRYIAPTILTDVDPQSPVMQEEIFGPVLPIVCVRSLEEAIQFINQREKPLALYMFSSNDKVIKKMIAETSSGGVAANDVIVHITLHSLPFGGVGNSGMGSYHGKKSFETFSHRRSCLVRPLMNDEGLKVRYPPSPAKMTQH

T3: ALDH1A3 (Homo sapiens, UniProt P47895)
T3 construct: purchased
T3 sequence (P47895 1-512): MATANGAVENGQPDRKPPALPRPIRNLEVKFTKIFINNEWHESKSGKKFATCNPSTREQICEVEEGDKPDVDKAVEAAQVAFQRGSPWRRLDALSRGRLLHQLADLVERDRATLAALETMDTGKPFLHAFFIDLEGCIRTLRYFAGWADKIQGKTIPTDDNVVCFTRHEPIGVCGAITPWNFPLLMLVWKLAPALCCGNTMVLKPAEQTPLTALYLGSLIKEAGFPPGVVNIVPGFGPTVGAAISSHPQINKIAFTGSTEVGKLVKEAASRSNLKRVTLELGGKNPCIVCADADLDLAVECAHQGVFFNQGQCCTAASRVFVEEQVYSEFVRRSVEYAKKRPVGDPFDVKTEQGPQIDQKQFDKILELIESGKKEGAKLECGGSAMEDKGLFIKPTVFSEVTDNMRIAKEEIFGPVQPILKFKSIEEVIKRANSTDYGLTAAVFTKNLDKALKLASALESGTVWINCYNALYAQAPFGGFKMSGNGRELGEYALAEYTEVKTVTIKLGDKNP


Experiments:
ALDH1A1 [1] = target: T1, ALDH1A1; experiment: Reactivity of probes to recombinant ALDH1A1 (UPLC/MS/MS detection of aldehyde and carboxylic acid forms); format: biochemical; settings: 10-100 nM ALDH, 10-80 μM compound, Tris buffer pH 7.5, 30 minutes at 37° C., ◯/X not defined by a legend
Protocol: (§1) Human recombinant ALDH1A1/1A3/3A1 was purchased, and 100 mM of KCL, 2 mM of DTT, 1 mM of NAD(P), 10-100 nM of each ALDH, and 10-80 μM of each compound were mixed in Tris buffer (100 mM, pH 7.5), reacted for 30 minutes at 37° C., an equal amount of acetonitrile added, and the reaction stopped. The reaction solution was analyzed by UPLC/MS/MS (Waters). The UPCL chromatogram was carried out over five minutes at a flow rate of 800 μL/min by a linear gradient from 5% acetonitrile 0.01 M ammonium formate/water to 95% acetonitrile 0.01 M ammonium formate/water. An aldehyde-form and carboxylic acid-form probe were detected by the absorbance at a wavelength of 504 nm, and m/z of the MS spectrum at each peak was confirmed to agree with the expected m/z.

ALDH3A1 [2] = target: T2, ALDH3A1; experiment: Reactivity of probes to recombinant ALDH3A1 (UPLC/MS/MS); format: biochemical; settings: 10-100 nM ALDH, 10-80 μM compound, Tris buffer pH 7.5, 30 minutes at 37° C., ◯/X not defined by a legend
Protocol: as §1, with “formate/water.” for “formate/water. An aldehyde-form and carboxylic acid-form probe were detected by the absorbance at a wavelength of 504 nm, and m/z of the MS spectrum at each peak was confirmed to agree with the expected m/z.”

ALDH1A1 [3] = target: T1, ALDH1A1; experiment: Kinetic characteristics (Michaelis-Menten Km, Kcat) with ALDH1A1; format: biochemical; settings: five minutes at 37° C., Tris buffer pH 7.5
Protocol: as §1
(§2) For the reaction, 100 mM of KCL, 2 mM of DTT, 1 mM of NAD(P), and five to six concentrations within the range of 10-100 nM of each ALDH and 0.1-80 μM of each probe were selected, mixed in Tris buffer (100 mM, pH 7.5), and reacted for five minutes at 37° C.; an equal amount of acetonitrile was added, and the reaction was stopped. Detection of the aldehyde-form/carboxylic acid-form probes was carried out using the same method as described above by UPLC/MS/MS. Km and Kcat were calculated by fitting the reaction rate at each probe concentration obtained to the Michaelis-Menten equation. A Kaleida Graph ver. 4.1 (Hulinks, Inc.) was used in fitting.

ALDH3A1 [4] = target: T2, ALDH3A1; experiment: Kinetic characteristics (Michaelis-Menten Km, Kcat) with ALDH3A1; format: biochemical
Protocol: as §1, §2
The Kcat ratio (Kcat of ALDH3A1/Kcat of ALDH1A1) was calculated for probe 1, probe 3, and probe 5 as an indicator of ALDH1A1/ALDH3A1 specificity because the probe reaction rate at the actual probe use concentration is believed to be close to Vmax since Km is relatively small (Table 5).

[5] = HPLC (LC/MS) retention time as measure of hydrophilicity / membrane permeability; format: physicochemical; settings: C18 column; 20% B 2.5 min, 20%-->100% B 5 min, 500 μL/min; neutral conditions; mean±SD of three tests
Protocol: In the present invention, it is preferable to use the retention time on an HPLC chromatogram as the measure of hydrophilicity.
HPLC conditions: taking solvent A to be 0.01 M ammonium formate/water and solvent B to be 80% acetonitrile 0.01 M ammonium formate/water, chromatography is carried out under conditions of 20% solvent B for 2.5 minutes followed by a 5-minute linear gradient of solvent B from 20% to 100% (flow rate 500 μL/min).
A C18 column (HP 3 μm, inner diameter: 2.1 mm, length: 150 mm, GL Science), for example, can be used suitably as the column.
The water solubility was verified by LC/MS under neutral conditions to compare the membrane permeability of the five probes produced above and ALDEFLUOR. The reaction was stopped after advancing the reaction to the point that each probe was present as both a carboxylic acid form and an aldehyde form using a suitable isoform and concentration of ALDH, and analysis was conducted by LC/MS (Agilent 1200/6130 quadrupole LC/MS system). A C18 column (HP 3 μm, inner diameter: 2.1 mm, length: 150 mm, GL Science) was used as the column. HPLC chromatograms were carried out by 20% B for 2.5 minutes followed by a five-minute linear gradient (flow rate: 500 μL/min) from 20% to 100% B, taking solvent A to be 0.01 M ammonium formate/water and solvent B to be 80% acetonitrile 0.01 M ammonium formate/water. The probe containing BODIPY was detected by the absorbance at a wavelength of 504 nm and the probe containing TG at a wavelength of 495 nm, and m/z of the MS spectrum at each peak was confirmed to agree with the expected m/z. Three independent tests were run, and the mean±SD was calculated. […] Given that imaging of probe 1 was not successful, there was thought to be a threshold at which the membrane permeability changes rapidly between this 6.741 minutes and 7.098 minutes (band in FIG. 2).

OE21 cell line = experiment: Cell imaging of OE21 cells against CB7 negative control; format: cell-based; settings: probe 5: 40 μM, 90 minutes at 37° C., CB7 10 μM control
Protocol: 40 μM of probe 5 was added to culture medium (RPMI 1640, 10% FBS, 15 mM HEPES, phenol red-free). After culturing for 90 minutes at 37° C., the cells were washed using a chilled medium and examined under a confocal microscope. A sample with a specific ALDH3A1 inhibitor (1-[(4-fluorophenyl)sulfonyl]-2-methyl-1H-benzimidazole, CB7, 10 μM) added served as a negative control. Excitation was provided by a 488 nm laser, and observation was carried out at wavelengths of […] in detection.

ALDH1A3 = target: T3, ALDH1A3; experiment: Reactivity of probes to recombinant ALDH1A3 (UPLC/MS/MS); format: biochemical; settings: 10-100 nM ALDH, 10-80 μM compound, Tris buffer pH 7.5, 30 minutes at 37° C.; ◯/X not defined by a legend
Protocol: as §1, with “formate/water.” for “formate/water. An aldehyde-form and carboxylic acid-form probe were detected by the absorbance at a wavelength of 504 nm, and m/z of the MS spectrum at each peak was confirmed to agree with the expected m/z.”

A549 cells = system: A549 cells
Description: An esophageal squamous cell carcinoma cell line (OE21 cell line) which are cells that express a high level of ALDH3A1 was used as the cells.

[6] = substrate: CCN(CCOCCNC(=O)c1ccc(-c2c3ccc(=O)cc-3oc3cc(O)ccc23)c(C)c1)c1ccc(C=O)cc1; experiment: Kinetic characteristics (Michaelis-Menten Km, Kcat) with ALDH1A1; format: biochemical, Human; settings: other: five minutes at 37° C., Tris buffer pH 7.5
Protocol: as §1, §2

[7] = five minutes at 37° C., Tris buffer pH 7.5

Reactivity to ALDH1A1 (ALDH1A1 [1]; listed as compound 2) | Reactivity to ALDH1A3 (ALDH1A3) | Molecule | Reactivity to ALDH1A1 (ALDH1A1 [1]) | Reactivity to ALDH1A1 (ALDH1A1 [1]; listed as compound 3) | Reactivity to ALDH3A1 (ALDH3A1 [2]) | Reactivity to ALDH3A1 (ALDH3A1 [2]; listed as compound 3) | Kcat ALDH1A1 (ALDH1A1 [3]) [s⁻¹] | Km (ALDH1A1 [3]) [µM] | Kcat ALDH3A1 (ALDH3A1 [4]; [7]) [s⁻¹] | Km (ALDH3A1 [4]; [7]) [µM] | Kcat ratio (Kcat of ALDH3A1/Kcat of ALDH1A1) (ALDH3A1 [4]; indicator of ALDH1A1/ALDH3A1 specificity) | Retention Time, Aldehyde form [5] [min] | Retention Time, carboxylate (carboxylic acid form) [5] [min] | Brightness of cells in imaging compared to negative control (CB7) (OE21 cell line) | Brightness of cells in imaging compared to negative control (A549 cells) | Km [6] [µM] | kcat [6] [s⁻¹]
 |  | 2-(N-ethyl-N-(4-formylphenyl)amino)ethyl-3-(1,3-dimethyl-4,4-difluoro-4-bora-3a,4a-diaza-s-indacen-5-yl)-propionamide [Probe 3] | ◯ | reacted with ALDH1A1 and ALDH3A1 | ◯ | reacted with ALDH1A1 and ALDH3A1 | 0.101 ± 0.00333 | 0.17 ± 0.03 | 0.203 ± 0.0033 | 0.87 ± 0.07 | 2 | 9.153 ± 0.010 | 7.920 ± 0.052 | no evident difference in brightness could be found in comparison to the negative control |  |  | 
presented reactivity only with ALDH1A1 | presented reactivity only with ALDH1A1 | N-(4-formylphenyl)-3-(1,3-dimethyl-4,4-difluoro-4-bora-3a,4a-diaza-s-indacen-5-yl)-propionamide [Probe 2] | ◯ |  | presented reactivity only with ALDH1A1 |  | 3.4 ± 0.415 | 5.76 ± 2.39 |  |  |  | 9.330 ± 0.002 | 7.284 ± 0.047 |  | no evident difference in brightness was found in comparison to the negative control |  | 
 |  | ALDH1A1 (Homo sapiens) (protein, purchased) MSSSGTPDLPVLLTDLKIQYTKIFINNEWHDSVSGKKFPVFNPATEEELCQVEEGDKEDVDKAVKAARQAFQIGSPWRTMDASERGRLLYKLADLIERDRLLLATMESMNGGKLYSNAYLNDLAGCIKTLRYCAGWADKIQGRTIPIDGNFFTYTRHEPIGVCGQIIPWNFPLVMLIWKIGPALSCGNTVVVKPAEQTPLTALHVASLIKEAGFPPGVVNIVPGYGPTAGAAISSHMDIDKVAFTGSTEVGKLIKEAAGKSNLKRVTLELGGKSPCIVLADADLDNAVEFAHHGVFYHQGQCCIAASRIFVEESIYDEFVRRSVERAKKYILGNPLTPGVTQGPQIDKEQYDKILDLIESGKKEGAKLECGGGPWGNKGYFVQPTVFSNVTDEMRIAKEEIFGPVQQIMKFKSLDDVIKRANNTFYGLSAGVFTKDIDKAITISSALQAGTVWVNCYGVVSAQCPFGGFKMSGNGRELGEYGFHEYTEVKTVTVKISQKNS |  |  |  |  |  |  |  |  |  |  |  |  |  | 0.26 ± 0.05 | 0.017 ± 0.00067
